Experimental data reported in US11661439B2, “Peptide hydrogels and use thereof” (The United States of America, as represented by the …, priority 2017, dated 2023).

Columns and labels:
[1] = TEM analysis of peptide fibrils; format: physicochemical; conditions: 30 independent measurements
Method: FIG. 4. Fibril visualization of β-hairpin peptide hydrogels. Transmission Electron Microscopy (TEM) images of peptide fibrils and frequency distributions determined from 30 independent measurements (scale bar=100 nm).
Transmission electron microscopy (TEM) analysis. The hydrogel nanostructure of the peptide gels was observed using a Hitachi H-7650 transmission electron microscope at a voltage of 80 kV. A 1 wt % solution of peptide and an equal volume of buffer (50 mM HEPES containing 300 mM NaCl, pH 7.4) was mixed and incubated overnight at 37° C. to allow for gelation. The next day, samples for TEM analysis were prepared by suspending 5 μL of the resulting peptide gel in 195 μL of water to yield a 40-fold dilution. Small amounts (5 μL) of each diluted gel solution were applied to separate carbon coated copper grids. After 1 min, the grid was washed with water. Then, a 1 w/v % uranyl acetate aqueous solution was placed on each grid for negative staining. Excess staining solution was blotted away, left to air dry, and the grids were imaged immediately.

[2] = system: human dermal fibroblasts (HDFs); experiment: 2D cell culture of HDFs on gel surfaces; format: cell-based; conditions: Essential 8 Medium or serum-free DMEM
Method: 2D cell culture on peptide gels. Peptides were initially dissolved in water at 1 wt % on ice and mixed with an equal volume of ice-cold 2×HEPES buffer (50 mM HEPES, 300 mM NaCl, pH 7.4). The peptide solution (50 μL per well) was transferred to a non-tissue culture treated 96-well plates and incubated at 37° C. to initiate gelation. After 1 hour, HDFs (2×10^4 cells per 200 μL, per well) in serum-free DMEM, 10% FBS supplemented DMEM, or Essential 8 Medium (Thermo Fisher Scientific) were seeded on the peptide gels and cultured for 4 days. Bovine type I collagen gels (0.3 wt %, 50 μL per well) were prepared in 96-well plates following manufacturer's instructions.
Cell viability assay. Cell viability was evaluated by live and dead cell staining after 2D and 3D cell culture. Serum-free DMEM containing 1 μM calcein-AM and 2 μM ethidium homodimer-1 was added to the cells (200 μL per well for 2D culture and 500 μL each to the top and bottom of the gels for 3D culture). After incubation at 37° C. for 30 min, live and dead cells were visualized using EVOS FL Auto Cell Imaging System (Thermo Fisher Scientific). For the pseudo-colored composite image of varying heights of encapsulated cells, images of the live-stained cells were captured every 5 μm of height. Then Z-stack images for each 100 μm were flattened using the EVOS software, and the flattened images were pseudo-colored and merged using ImageJ.
Cell proliferation assay. A cell proliferation assay was performed using Cell Counting Kit-8 (CCK-8, Dojindo Molecular Technologies) for 2D and 3D cell culture. Serum-free DMEM containing 10% CCK-8 was added to the gels (200 μL per well for 2D culture; 500 μL to the top of the gels for 3D culture) and incubated for 2 hours at 37° C. Subsequently, media were transferred to 96-well plates (150 μL per well) and their absorbance measured at 450 nm relative to control viabilities from day 0 for 2D cell culture and day 1 for 3D cell culture. Experiments were performed in triplicate.
Cytoskeleton staining. For 2D cell culture, the peptide and collagen gels (70 μL) were prepared as described above on the glass bottom of 35 mm dishes (7 mm glass diameter, MatTek). HDFs in Essential 8 Medium (1.5×10^5 cells per 3 mL) were added to the dishes and incubated at 37° C. for 24 hours. Cells were fixed and permeabilized with 4% paraformaldehyde and 0.1% Triton X-100 in PBS for 15 min, and then blocked with 1% BSA in PBS. Cells were incubated with anti-vinculin antibody (hVIN-1, Sigma) for 1 hour at room temperature. Then, a goat anti-mouse IgG (H+L) cross-adsorbed secondary antibody, Rhodamine Red-X (2 μg mL^−1, Thermo Fisher Scientific), Alexa Fluor 488 phalloidin (5 units mL^−1, Thermo Fisher Scientific), and Hoechst 33342 (5 μg mL^−1, Invitrogen) in PBS were added to the dishes and incubated for 1 hour at room temperature. After washing, cells were visualized using an EVOS FL Auto Cell Imaging System.

[3] = Oscillatory rheology of protein-loaded AcVES3 hydrogels; format: physicochemical; conditions: at 60 min; 0.5 wt % AcVES3 hydrogel loaded with protein
Method: FIGS. 12A and 12B. […] (12A) Dynamic time sweep experiments. Hydrogels were set for 60 min, followed by 30 s of high strain, then a recovery period of 60 min. (12B) Storage moduli after 60 min. Bars outlined in black represent post shear storage moduli after 60 min recovery.
Oscillatory Rheology. Rheological assessment was conducted on a […] AR-G2 rheometer using a 25 mm stainless steel parallel geometry. A representative set of proteins was used to determine whether the fusion domain affected the material properties of the AcVES3 hydrogels. […] This solution was immediately applied to the center of the plate and the upper geometry was lowered to a gap height of […]. The temperature was increased from 5° C. to 37° C. over 100 s at a constant angular frequency of 6 rad s^−1 and 0.2% strain. The storage and loss moduli were monitored for 60 min at a constant angular frequency of 6 rad s^−1 and 0.2% strain at 37° C. […] The moduli were monitored for 60 min (6 rad s^−1, 0.2% strain, 37° C.), followed by the application of 1000% strain for 30 s to shear the gel, after which the strain was reduced to 0.2% and the gel was allowed to recover for 60 min (6 rad s^−1, 0.2% strain).

Substance	average fibril width [1]	cell adhesion of HDFs on gel surface ([2]; day 1)	cell adhesion of HDFs on gel surface ([2]; day 4)	storage moduli [3]
Ac-VEVSVSVEV^DPPTEVSVEVEV-NH2 [AcVES3]	3.1±0.4 nm	adhered	most of the cells detached	–
EGFP: fluorescent protein EGFP, SEQ ID NO: 19, model heterologous protein with net negative charge	–	–	–	~1000 Pa
